Source: patent publication US11691951B2 (Curtana Pharmaceuticals, Inc., priority 2015, dated 2023)
Where a name gives a salt, the structure may show the parent alone.

Key:
[1] = tested on: GBM8 cells (human glioblastoma neurosphere cell culture); assay: GBM8 viability assay (Cell Titer Glo luminescence, 3 days); assay type: cell-based; settings: 72 h, 3 days incubation
Summary of the method: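 Patient-derived neurosphere cells (4000/well) in NeuroCult medium with rh EGF, rh bFGF and heparin, ultra-low attachment, dosed after overnight settling; 3 days at 37 °C. CellTiter-Glo luminescence versus DMSO controls gave % growth inhibition; IC50 from 4-parameter fit of serial dilutions.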

[2] = tested on: GBM4 cells (human glioblastoma neurosphere cell culture); assay: GBM4 viability assay (Cell Titer Glo luminescence, 3 days); assay type: cell-based; settings: 72 h, 3 days incubation
Method: Example 283: GBM4 and GBM8 Viability Assay
Cell culture medium was prepared from a NSA proliferation kit (Neurocult) and NeuroCult supplements (Stemcell Tech Cat. #05751) and treated with 20 μL of 10 μg/mL rh EGF, 10 μL of 10 μg/mL rh bFGF and 10 μL of 0.2% Heparin. In this medium, human glioblastoma cells were cultured in ultra-low attachment tissue culture flasks until 1×10^6 cells ml was achieved (GBM4 and GBM8 are distinct neurosphere cell cultures derived from these human patient tissues). GBM4 and GBM8 cells were dissociated and 10 mL of media containing 4000 human glioblastoma cells per 90 uL were transferred to an ultra-low binding 96-well plate and incubated at 37° C. overnight. On the following day, 10 μL of a 1% DMSO solution of test compound in assay medium was added to wells containing the cell suspension and the mixture incubated at 37° C. for 3 days. At this time, the plate was removed from the incubator and allowed to reach room temperature. After about 30 minutes, 50 μL of Cell Titer Glo solution was added to each well and the plate shaken for 1 minute at low speed. After 10 minutes luminescence was recorded using a Tecan Safire2 reader.
Reduction in luminescence compared to DMSO only control wells was used to determine the percentage inhibition of cell growth. IC50s were calculated using the % inhibition of luminescence for serial dilutions of compounds fitted to a 4-parameter fit within the Prism (San Diego) curve fitting program.

IC50 [1] | IC50 [2] | SMILES
< 1 µM | < 1 µM | Cc1cc(NC2CCCNC2)nc(NC(=O)Nc2ccc(Cl)c(Cl)c2)n1 (racemic) [Compound 24, (±)-2-[3-(3,4-dichlorophenyl)ureido]-6-methyl-4-(3-piperidylamino)pyrimidine hydrochloride]
10 to 30 µM | 10 to 30 µM | CCN1CCCC(Nc2cc(C)nc(NC(=O)Nc3ccc(Cl)c(Cl)c3)n2)C1 (racemic) [Compound 30, (±)-2-[3-(3,4-dichlorophenyl)ureido]-4-(1-ethyl-piperidin-3-yl-amino)-6-methylpyrimidine]
1 to 10 µM | 10 to 30 µM | CCN1CCCC(Nc2cc(C)nc(N3CCN(c4ccc(Cl)c(Cl)c4)C3=O)n2)C1 (racemic) [Compound 34, (±)-1-(3,4-dichlorophenyl)-3-[4-(1-ethyl-3-piperidylamino)-6-methyl-2-pyrimidinyl]-2-imidazolidinone]
1 to 10 µM | 10 to 30 µM | Cc1cc(N2CCOCC2)nc(NC(=O)Nc2ccc(Cl)c(Cl)c2)n1 [Compound 4, 1-(3,4-dichlorophenyl)-3-(6-methyl-4-morpholino-2-pyrimidinyl) Urea]
– | 10 to 30 µM | Cc1cc(N2CCN(C)CC2)nc(NC(=O)Nc2ccc(Cl)c(Cl)c2)n1 [Compound 5, 1-(3,4-dichlorophenyl)-3-{6-methyl-4-(4-methyl-piperazin-1-yl-)pyrimidin-2-yl}-urea]
1 to 10 µM | 1 to 10 µM | CNCCN(C)c1cc(C)nc(NC(=O)Nc2ccc(Cl)c(Cl)c2)n1 [Compound 6, 1-(N-methyl{2-[3-(3,4-dichlorophenyl)ureido]-6-methyl-4-pyrimidinyl}amino)-2-(methylamino)ethane]
< 1 µM | < 1 µM | Cc1cc(NCCCO)nc(NC(=O)Nc2ccc(Cl)c(Cl)c2)n1 [Compound 7, 3-{2-[3-(3,4-dichlorophenyl)ureido]-6-methyl-pyrimidin-4-yl}-aminopropanol]
< 1 µM | < 1 µM | Cc1cc(NCCCN(C)C)nc(NC(=O)Nc2ccc(Cl)c(Cl)c2)n1 [Compound 8, 1-{2-[3-(3,4-Dichlorophenyl)ureido]-6-methyl-pyrimidin-4-yl}-amino-3-(dimethylamino)propane]
1 to 10 µM | 1 to 10 µM | Cc1cc(Nc2ccncc2)nc(NC(=O)Nc2ccc(Cl)c(Cl)c2)n1 [Compound 39, 2-[3-(3,4-dichlorophenyl)ureido]-6-methyl-4-(4-pyridylamino)-pyrimidine]
< 1 µM | – | CC(=O)NCCCNc1cc(C)nc(NC(=O)Nc2ccc3c(c2)OCCO3)n1 [Compound 308, N-(3-{2-[3-(2,3-dihydro-benzo[1,4]dioxin-6-yl)-ureido]-6-methyl-pyrimidin-4-ylamino}-propyl)-acetamide]
< 1 µM | – | CC(=O)NCCNc1cc(C)nc(NC(=O)Nc2ccc(C(C)(C)C)cc2)n1 [Compound 309, N-(2-{2-[3-(4-tert-butyl-phenyl)-ureido]-6-methyl-pyrimidin-4-ylamino}-ethyl)-ace mid]
< 1 µM | – | CC(=O)NCCCNc1cc(C)nc(NC(=O)Nc2ccc(C(C)(C)C)cc2)n1 [Compound 310, N-(3-{2-[3-(4-tert-butyl-phenyl)-ureido]-6-methyl-pyrimidin-4-ylamino}-propyl)-acetamide]
